The structures appear in SMILES notation. Structures can show the parent of a compound that is named as a salt.

In one experiment the target is LsrK (Salmonella typhimurium, UniProt Q8ZKQ6). Briefly: biochemical. Format: biochemical, S. typhimurium.
Sequence of LsrK (Q8ZKQ6 whole entry): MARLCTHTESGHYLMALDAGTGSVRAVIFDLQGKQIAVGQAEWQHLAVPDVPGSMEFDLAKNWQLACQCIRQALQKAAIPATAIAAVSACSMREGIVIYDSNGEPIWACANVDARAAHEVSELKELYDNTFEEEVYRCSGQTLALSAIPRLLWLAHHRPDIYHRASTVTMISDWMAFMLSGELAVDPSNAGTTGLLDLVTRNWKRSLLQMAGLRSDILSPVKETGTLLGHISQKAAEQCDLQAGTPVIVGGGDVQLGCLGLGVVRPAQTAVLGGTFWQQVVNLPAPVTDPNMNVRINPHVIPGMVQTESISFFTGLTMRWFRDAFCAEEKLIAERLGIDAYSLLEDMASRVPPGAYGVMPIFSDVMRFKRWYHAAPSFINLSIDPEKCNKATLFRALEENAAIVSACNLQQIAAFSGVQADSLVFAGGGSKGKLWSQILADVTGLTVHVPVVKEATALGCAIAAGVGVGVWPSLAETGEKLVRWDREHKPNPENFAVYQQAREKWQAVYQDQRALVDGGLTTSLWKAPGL
Details: not given
As usually defined, the inhibition is the change of the read-out against control, counted positive when it falls. For the compound `CC[C@H](c1ccc(O)cc1)[C@@H](CC)c1ccc(O)cc1` [HEXESTROL], the inhibition at 50 µM stood at 3%.
Take `CCCCCCc1ccc(O)cc1O` [HEXYLRESORCINOL]: the inhibition at 50 µM stood at 0%.
The same measure, in the same setting: the result for `NCCc1c[nH]cn1` [HISTAMINE DIHYDROCHLORIDE] reads 3%; that for `C[N+]1(C)[C@@H]2CC[C@H]1C[C@@H](OC(=O)C(O)c1ccccc1)C2` (stereo partly shown) [HOMATROPINE METHYLBROMIDE], 0%; that for `CC[n+]1c(-c2ccccc2)c2cc(N)ccc2c2ccc(N)cc21` [HOMIDIUM BROMIDE], 72%.
As to `CCN(CC)CCNc1ccc(CO)c2sc3ccccc3c(=O)c12` [HYCANTHONE], the inhibition at 50 µM is 1%.
Same read-out and setting: the result for `Oc1ccc(O)cc1` [HYDROQUINONE] reads 0%; that for `CCCCCC(=O)O[C@]1(C(C)=O)CC[C@H]2[C@@H]3CCC4=CC(=O)CC[C@]4(C)[C@H]3CC[C@@]21C` [HYDROXYPROGESTERONE CAPROATE], 3%.
On the same count and under the same terms, the result for `Cc1cccc(C(=O)O)c1O` [HYDROXYTOLUIC ACID] reads 1%; that for `OCCOCCN1CCN(C(c2ccccc2)c2ccc(Cl)cc2)CC1` (stereo not shown) [HYDROXYZINE PAMOATE], 125%.
The same measure, in the same setting: for `O=c1[nH]cnc2nc[nH]c12` [HYPOXANTHINE] the value was 2%; for `COc1ccc2c(C)cc(=O)oc2c1` [H[…] ETHER], 0%.
As to `Cc1cc(O)c(C=O)c(O)c1C(=O)O` [H[…]], the inhibition at 50 µM is 1%.
On the same count and under the same terms, the result for `COc1ccc(-c2oc3c(CC=C(C)C)c(O[C@@H]4O[C@H](CO)[C@@H](O)[C@H](O)[C@H]4O)cc(O)c3c(=O)c2O[C@@H]2O[C@@H](C)[C@H](O)[C@@H](O)[C@H]2O)cc1` [ICARIIN] reads 36%.
For the compound `CC(C)[N+]1(C)[C@@H]2CC[C@H]1C[C@@H](OC(=O)C(CO)c1ccccc1)C2` (stereo partly shown) [IPRATROPIUM BROMIDE], the inhibition at 50 µM amounted to 0%.
The same measure, in the same setting: the result for `CC(C)Oc1ccc2c(=O)c(-c3ccccc3)coc2c1` [IPRIFLAVONE] reads 2%.
The same measure, in the same setting: for `CCCCC1=NC2(CCCC2)C(=O)N1Cc1ccc(-c2ccccc2-c2nnn[nH]2)cc1` [IRBESARTAN] the value was 10%; for `COc1c(O)cc(O)cc1O` [IRETOL], 1%; for `COc1cc(-c2coc3cc(O[C@@H]4O[C@H](CO)[C@@H](O)[C@H](O)[C@H]4O)c(OC)c(O)c3c2=O)cc(O)c1OC` [IRIDIN], 1%.
On the same count and under the same terms, the result for `O=c1c(-c2cc(O)c(O)c(O)c2)coc2cc(O)c(O)c(O)c12` [IRIGENOL] reads 90%; that for `CC(=O)Oc1cc(-c2coc3cc(OC(C)=O)c(OC(C)=O)c(OC(C)=O)c3c2=O)cc(OC(C)=O)c1OC(C)=O` [IRIGINOL HEXAACEATATE], 114%.
Turning to `CC(C)Nc1ncccn1` [ISAXONINE], the inhibition at 50 µM was determined as 0%.
Still for that read-out and setting: the result for `CCC(NC(C)C)C(O)c1ccc(O)c(O)c1` (stereo not shown) [ISOETHARINE MESYLATE] reads 2%.
Take `C=C1CCC2C(CC2(C)C)C(=O)CCC1O` (stereo not shown) [ISOKOBUSONE]: the inhibition at 50 µM worked out at 3%.
The same measure, in the same setting: the result for `C/C=C/c1ccc2c(c1)OCO2` [ISOSAFROLE] reads 1%.
Same read-out and setting: the result for `O=[N+]([O-])O[C@@H]1CO[C@H]2[C@@H]1OC[C@@H]2O` [ISOSORBIDE MONONITRATE] reads 0%; that for `CC(COc1ccccc1)NC(C)C(O)c1ccc(O)cc1` (stereo not shown) [ISOXSUPRINE HYDROCHLORIDE], 2%; that for `O=C(O)/C=C/C=C/c1ccccc1` [JUAREZIC ACID], 1%.

The experiment is the same for the next values; noted with them: 50 µM.
Consider `CCC(Cc1c(I)cc(I)c(N)c1I)C(=O)O` (stereo not shown) [IOPANIC ACID], for which the “Inhibition (%)” value amounted to 16.
The same measure, in the same setting: the result for `COc1cc(-c2coc3cc(OCc4ccccc4)c(OC)c(O)c3c2=O)cc(O)c1OC` [IRIGENIN. 7-BENZYL ETHER] reads 2.
On the same count and under the same terms, the result for `CC1=C(/C=C/C(C)=C/C=C/C(C)=C\C(=O)O)C(C)(C)CCC1` [ISOTRETINON] reads 1.

Source of the values: paper PMC6627609, “Targeting Quorum Sensing: High-Throughput Screening to Identify Novel LsrK Inhibitors” (International Journal of Molecular Sciences, 2019).
